Some results are limits rather than exact numbers.

One may read the IC50 as the concentration that gives 50% inhibition.

Assay [1] concerns T-cell. Briefly: IL-2 secretion from T-cells stimulated with anti-CD3 antibody alone (Biological Example 2). In kind it is cell-based, human. The settings on record: Homo sapiens, T-cell; 1 μM Cbl-b inhibitor; fold change over baseline (anti-CD3/anti-CD28 stimulated T-cells without inhibitor); read-out: IL-2 secretion Anti-CD3 stimulation.
Assay [2] deals with T1, Cbl-b (Homo sapiens, UniProt Q13191). Briefly: Cbl-b activity assay (Cbl-b inhibition assay), TR-FRET of Cbl-b interaction with UbcH5B-Ub. In kind it is biochemical. Particulars: assay buffer with 100 mM NaCl, 60 nM Src kinase; read-out: Cbl-b activity IC50. A digest of the protocol: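 TR-FRET readout of Cbl-b binding to Bodipy-fluorescein N-terminally labeled Ub conjugated to UbcH5B C85K, measured with compound present. After compound incubation, 60 nM Src kinase with 1 mM ATP and 5 mM MgCl2 (final) was added for 1.5 h, then a further 1 h incubation; asterisked values used 50 mM NaCl buffer and 30 nM Src.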
On the technique in general: TR-FRET usually uses a lanthanide donor and a delayed reading to cut background.

In assay [3] the test system is T-cell. Nature of the assay: CD25 cell surface staining on T-cells stimulated with anti-CD3 antibody alone (Biological Example 2). In kind it is cell-based, human. Particulars: Homo sapiens, T-cell; 1 μM Cbl-b inhibitor; fold change over baseline (anti-CD3/anti-CD28 stimulated T-cells without inhibitor); read-out: CD25 staining Anti-CD3 stimulation.
Assay [4] concerns the target T1, Cbl-b. Briefly: Cbl-b inhibition assay (Cbl-b activity assay, FRET, Biological Example 1; 100 mM NaCl, 60 nM Src kinase). Format: biochemical. Particulars: upper bound stated in text lists; read-out: IC50 values in the Cbl-b inhibition assay of Biological Example 1. A digest of the protocol:
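TR-FRET assay using N-terminal biotinylated Avi-tagged Cbl-b bound to streptavidin-terbium, Src kinase for Cbl-b phosphorylation, and UbcH5B irreversibly conjugated to Bodipy-Fluorescein-ubiquitin. Phosphorylated Cbl-b binds UbcH5B-Ub, bringing the fluorophores together; inhibition is read as loss of FRET signal.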

For assay [5], the system named is T-cell. Briefly: IL-2 secretion from T-cells co-stimulated with anti-CD3 and anti-CD28 antibody (Biological Example 2). In kind it is cell-based, human. The settings on record: Homo sapiens, T-cell, fold change over baseline (anti-CD3/anti-CD28 stimulated T-cells without inhibitor), read-out: IL-2 secretion Anti-CD3/Anti-CD28 stimulation; for fold induction at 0.3 µM: 0.3 μM Cbl-b inhibitor; for fold induction at 1 µM: 1 μM Cbl-b inhibitor. Summed up:
(§1)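 No assay protocol given; T-cells stimulated with anti-CD3 alone or anti-CD3 plus anti-CD28, with or without Cbl-b inhibitor. Activation read as IL-2 secretion or CD25 surface staining, expressed as fold over baseline from uninhibited cells […].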

The test system of assay [6] is T-cell. Briefly: CD25 cell surface staining on T-cells co-stimulated with anti-CD3 and anti-CD28 antibody (Biological Example 2). In kind it is cell-based, human. The settings on record: Homo sapiens, T-cell, fold change over baseline (anti-CD3/anti-CD28 stimulated T-cells without inhibitor), read-out: CD25 staining Anti-CD3/Anti-CD28 stimulation; for fold induction at 0.3 µM: 0.3 μM Cbl-b inhibitor; for fold induction at 1 µM: 1 μM Cbl-b inhibitor. A digest of the protocol:
as §1

T1 sequence (Q13191 36-427): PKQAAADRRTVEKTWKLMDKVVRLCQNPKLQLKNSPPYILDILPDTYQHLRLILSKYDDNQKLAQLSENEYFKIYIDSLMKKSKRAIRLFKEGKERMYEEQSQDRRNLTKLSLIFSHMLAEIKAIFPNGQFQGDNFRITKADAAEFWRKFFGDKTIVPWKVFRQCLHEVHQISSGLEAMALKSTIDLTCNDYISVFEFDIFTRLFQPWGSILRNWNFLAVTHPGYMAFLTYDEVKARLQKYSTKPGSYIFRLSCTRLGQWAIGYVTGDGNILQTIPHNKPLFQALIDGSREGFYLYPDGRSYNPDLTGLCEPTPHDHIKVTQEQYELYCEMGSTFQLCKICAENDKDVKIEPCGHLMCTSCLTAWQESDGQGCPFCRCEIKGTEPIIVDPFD

Turning to `Cn1cnnc1CC1(c2cccc(N3Cc4c(cc(C5=CCOC5)cc4C(F)(F)F)C3=O)c2)COC1` [Example 612, 6-(2,5-dihydrofuran-3-yl)-2-(3-(3-((4-methyl-4H-1,2,4-triazol-3-yl)methyl)oxetan-3-yl)phenyl)-4-(trifluoromethyl)isoindolin-1-one], the fold induction at 1 µM was 0.101 to 0.15 with T-cell [1], 0.801 to 1 in the assay with T-cell [3], 2.51 to 5 with T-cell [5] and 1.31 to 1.5 in the assay with T-cell [6]. Besides, the figures for the IC50 at Cbl-b [2] and at Cbl-b [4] were under 100 nM and at most 100 nM, respectively. Besides, the fold induction at 0.3 µM in the assay on T-cell [5] was in the range of 2.51 to 5; in the assay with T-cell [6] it was 1.01 to 1.3.

For `Cn1cnnc1CC1(c2cccc(N3Cc4c(cc(C5CCOC5)cc4C(F)(F)F)C3=O)c2)COC1` (stereo not drawn) [Example 613, 2-(3-(3-((4-methyl-4H-1,2,4-triazol-3-yl)methyl)oxetan-3-yl)phenyl)-6-(THF-3-yl)-4-(trifluoromethyl)isoindolin-1-one], the fold induction at 1 µM was 0.101 to 0.15 in the assay with T-cell [1], 0.801 to 1 in the assay on T-cell [3], 5 to 7.5 with T-cell [5] and 1.01 to 1.3 in the assay on T-cell [6]. For the same compound, the IC50 on Cbl-b [2] is under 100 nM; at Cbl-b [4], at most 100 nM. Further, the fold induction at 0.3 µM in the assay on T-cell [5] was 2.51 to 5; in the assay on T-cell [6] it was 1.01 to 1.3.

`Cn1cnnc1CC1(c2cccc(N3Cc4c(cc(C5=CCCOC5)cc4C(F)(F)F)C3=O)c2)COC1` [Example 614]: the fold induction at 1 µM in the assay with T-cell [1] is 0.101 to 0.15; with T-cell [3], 0.801 to 1; in the assay on T-cell [5] it was 2.51 to 5; in the assay with T-cell [6] it was 1.01 to 1.3. For the same compound, the IC50 was under 100 nM on Cbl-b [2] and at most 100 nM on Cbl-b [4]. Moreover, the fold induction at 0.3 µM fell in the range of 2.51 to 5 in the assay with T-cell [5] and 1.01 to 1.3 in the assay with T-cell [6].

Take `Cn1cnnc1[C@@H](F)C1(c2cccc(N3Cc4c(cc(CN5CCC6(CC6)C5)cc4C(F)(F)F)C3=O)c2)COC1` [Example 618, (S)-6-((5-azaspiro[2.4]heptan-5-yl)methyl)-2-(3-(3-(fluoro(4-methyl-4H-1,2,4-triazol-3-yl)methyl)oxetan-3-yl)phenyl)-4-(trifluoromethyl)isoindolin-1-one]: the fold induction at 1 µM was 0.101 to 0.15 in the assay on T-cell [1], over 1 in the assay with T-cell [3], over 7.5 in the assay with T-cell [5] and 1.31 to 1.5 in the assay with T-cell [6]. In addition, the figures for the 50% inhibitory concentration (IC50) at Cbl-b [2] and on Cbl-b [4] were under 100 nM and at most 100 nM, respectively. Further, the fold induction at 0.3 µM in the assay with T-cell [5] lay within 5 to 7.5; with T-cell [6] it was 1.01 to 1.3.

With `Cn1cnnc1CC1(c2cccc(N3Cc4c(cc(CN5CC6CC5CO6)cc4C(F)(F)F)C3=O)c2)COC1` (stereo not drawn) [Example 619, 6-((2-oxa-5-azabicyclo[2.2.1]heptan-5-yl)methyl)-2-(3-(3-((4-methyl-4H-1,2,4-triazol-3-yl)methyl)oxetan-3-yl)phenyl)-4-(trifluoromethyl)isoindolin-1-one], the fold induction at 1 µM in the assay on T-cell [1] lay in the range of 0.051 to 0.1; in the assay on T-cell [3], 0.801 to 1; in the assay on T-cell [5], 5 to 7.5; with T-cell [6] it was 1.01 to 1.3. The IC50 was under 100 nM on Cbl-b [2] and at most 100 nM on Cbl-b [4]. In addition, the fold induction at 0.3 µM lay within 2.51 to 5 in the assay with T-cell [5] and 1.01 to 1.3 in the assay on T-cell [6].

Turning to `Cn1cnnc1CC1(c2cccc(N3Cc4c(cc(CN5CCC[C@@H](F)C5)cc4C(F)(F)F)C3=O)c2)COC1` [Example 623, (R)-6-((3-fluoropiperidin-1-yl)methyl)-2-(3-(3-((4-methyl-4H-1,2,4-triazol-3-yl)methyl)oxetan-3-yl)phenyl)-4-(trifluoromethyl)isoindolin-1-one], the fold induction at 1 µM with T-cell [1] is over 0.201; with T-cell [3], over 1; in the assay with T-cell [5], over 7.5; with T-cell [6], 1.31 to 1.5. In addition, the figures for the 50% inhibitory concentration (IC50) on Cbl-b [2] and on Cbl-b [4] were under 100 nM and at most 100 nM, respectively. Further, the fold induction at 0.3 µM was over 7.5 in the assay on T-cell [5] and 1.31 to 1.5 with T-cell [6].

The record behind these values is patent publication US20220324835A1 (Nurix Therapeutics, Inc., priority 2018, published 2022).
